Earlier results as cited in patent US20250195680A1, “CANCER TREATMENT WITH ANTI-CLAUDIN 18.2 ADC” (priority 2023, published 2025).

Tested on: gastric cancer
Conditions: combined with CAPOX or mFOLFOX6 vs chemotherapy alone

zolbetuximab: anti-CLDN18.2 monoclonal antibody
efficacy in treating gastric cancer: effective in treating gastric cancer
